Results published in PubChem BioAssay AID1996.
Values after ≈ are worked out from the molar mass of the structure shown.

Conditions: buffer; pH 7.4; 200.0 µM

SMILES	solubility kinetic [µg/mL]
COc1ccc(CCNC(=O)C(=O)c2c(C)[nH]c3ccccc23)cc1	0.5 (≈ 1.49 µM)
O=C(CCc1nnc(CCC2CCCCC2)o1)NCc1ccon1	> 49.9
COc1ccccc1C1(O)C(=O)Nc2ccccc21 (stereo unspecified)	> 38.3
CC1=C(C(=O)OC(C)C)C(c2cccs2)NC(=O)N1 (stereo unspecified)	37.2 (≈ 133 µM)
CSC1=NC2(C)CCCCC2C12C=CC(=O)C=C2 (stereo unspecified)	> 39.2
CN1CCN(Cc2nc3ccccc3n2C)CC1CCO (stereo unspecified)	34.3 (≈ 119 µM)
Cc1ccc(Cl)cc1NC(=O)CC1NC2CCCCC2NC1=O (stereo unspecified)	38.6 (≈ 115 µM)
CC(=O)Oc1ccccc1-c1nc(/C=C/c2ccccc2)no1	< 0.3
O=C(NCc1ccccc1Cl)C1CCN(C(=O)c2ccco2)CC1	> 52
CSc1ccccc1C(=O)Nc1ccc2c(c1)OCO2	> 43.1
O=C(CCNC(=O)c1ccc([N+](=O)[O-])cc1)Nc1ccc(F)cc1	21.8 (≈ 65.8 µM)
CC1CCN(S(=O)(=O)c2cccc(S(=O)(=O)N3CCCC3)c2)CC1	28.1 (≈ 75.4 µM)
CC1=C(C)C(O)N(Cc2ccccc2)C1=O (stereo unspecified)	> 32.6
CCc1nonc1NC(=O)c1oc2cc(C)c(C)cc2c1C	0.3 (≈ 1 µM)
COc1nc(NCCO)nc(Nc2cc(Cl)ccc2OC)n1	2.5 (≈ 7.67 µM)
CCc1c(C#N)sc(C(N)=O)c1CC	> 31.2
CC(C)CCNC(=O)COc1ccc(C(=O)c2ccccc2)cc1	13.5 (≈ 41.5 µM)
Cc1ccccc1NC(=S)N/N=C/c1ccc(O)cc1O	> 45.2
CCC(=O)Nc1ccc(NCc2cccs2)cc1	> 39.1
CCCSc1nc2c(c(=O)[nH]c(=O)n2C)n1Cc1ccccc1	1.6 (≈ 4.84 µM)
Cc1cccc(NC(=O)C2CCN(C(=O)c3ccco3)CC2)c1C	> 49

SMILES	solubility kinetic [µg/mL]
COc1cc(S(=O)(=O)N2CCOCC2)ccc1NC(=O)COC(=O)/C=C/c1cc(OC)c(OC)c(OC)c1	4.6 (≈ 8.35 µM)
COc1ccc(C(=O)C[n+]2ccc3ccccc3c2C)cc1.[Br-]	16.1
Cc1cc(NC(=O)C(=O)NCc2cccc(Cl)c2)no1	3.2 (≈ 10.9 µM)
Cc1cc(C)c(C)c(S(=O)(=O)NCc2ccc(C(=O)N3CCN(C)CC3)cc2)c1C	> 64.4
Cc1ccccc1CC1(CO)CCCN(C(=O)CCC(F)(F)F)C1 (stereo unspecified)	48.3 (≈ 141 µM)
COc1ccccc1CC(=O)Nc1ccon1	> 34.8
CCC(C)c1ccc(NC(=O)COC(=O)CCNS(=O)(=O)c2cccs2)cc1 (stereo unspecified)	21.2 (≈ 49.9 µM)
CC(C)C(=O)N1CC(=O)Nc2ccc(F)cc2C1c1ccc(F)cc1 (stereo unspecified)	> 51.7
COc1ccc(NC(=O)CCCCC(=O)Nc2ccc(OC)cc2OC)c(OC)c1	12.4 (≈ 29.8 µM)
O=C1/C(=C/c2cccs2)SC(=S)N1C1CCS(=O)(=O)C1 (stereo unspecified)	< 0.7
c1ccc(N2CCOCCOCCOCCOCC2)cc1	> 44.3
Cc1ccccc1/C=C/c1cc[n+](C)cc1.[I-]	> 50.6
O=C(NCc1ccccc1)c1ccc[n+]([O-])c1	> 34.2
O=C(COC(=O)c1ccc(F)cc1)Nc1ccc2c(c1)OCO2	4.5 (≈ 14.2 µM)
Cc1ccc(-c2c(=O)n(O)c3ccccc3[n+]2[O-])cc1	40.1 (≈ 149 µM)
Cc1ccc(OCC(=O)NCCNC(=O)c2ccccn2)cc1	46.9 (≈ 150 µM)
C=CC#CC1(O)CC(C)N(C)CC1C (stereo unspecified)	> 29
Cc1ccc(C)c(C(C)NC(=O)C2CCCO2)c1 (stereo unspecified)	36.7 (≈ 148 µM)
O=C(CC(=O)NCc1ccc(Cl)cc1)NCc1ccccc1	7.1 (≈ 22.4 µM)
COc1ccc(-c2nc3cc([N+](=O)[O-])ccc3o2)cc1OC	< 0.3
CSCCNC(=O)c1ccc2nc(C3CCCCC3)oc2c1	13.2 (≈ 41.5 µM)

SMILES	solubility kinetic [µg/mL]
O=C(O)CSc1nc2sc3c(c2c(=O)n1-c1ccccc1)CCC3	> 53.8
Cc1cc(N)ccc1NC(=O)CN1CCCC1	23.1 (≈ 99 µM)
O=CN1c2ccccc2CSc2ccccc21	32.9 (≈ 136 µM)
Cc1ccc(S(=O)(=O)Nc2ncnc3ccccc23)cc1	> 44.9
Cl.N=C(N)SCc1ccc(O)c([N+](=O)[O-])c1	> 39.6
COc1ccc(OC)c(/C=C(\C)C(=O)c2c(C)cc(C)[nH]c2=O)c1	40.4 (≈ 123 µM)
N#Cc1cccc(NC(=O)CNC(=O)Cc2ccccc2)c1	42.1 (≈ 144 µM)
COC(=O)c1ccc(CSc2nc3ccccc3c(=O)n2C)o1	4.5 (≈ 13.6 µM)
Cc1cccnc1NC(=O)CNC(=O)C1CCCCC1	> 41.3
O=C(Nc1ccccc1Cc1ccccc1)c1ccccc1F	3.1 (≈ 10.2 µM)
CC(=O)Nc1ccc(S(=O)(=O)Nc2nc(C)nc3sc(C)c(C)c23)cc1	> 58.6
CCOC(=O)c1c(C)n(Cc2ccc(F)cc2)c2ccc(O)cc12	< 0.7
COc1ccc2nc(NC(=O)c3c(C)noc3C)sc2c1	> 45.5
CN(Cc1ccccc1)C(=S)Nc1cccnc1	> 38.6
Cc1ccccc1C(=O)Nc1ccnc(-c2ccncc2)n1	0.5 (≈ 1.72 µM)
Cc1ccc(C)c(NC(=S)N(C)C)c1	> 31.2
COc1ccc(C(=O)N2CCC(C(=O)c3c(C)cc(C)cc3C)CC2)cc1	31.4 (≈ 85.9 µM)
S=C(Nc1ccc(Cl)cc1)NC1CCCCC1	4.4 (≈ 16.4 µM)
S=c1[nH]c2cc(Br)cnc2[nH]1	34.4 (≈ 150 µM)
